A short description of series [1]: Solubility in 100 mM bistrispropane buffer at pH 8.0 incubated for 18 hrs by UPLC analysis. The series is classed as physicochemical.
Series [2] is described as follows: Solubility in 100 mM bistrispropane buffer at pH 7.5 incubated for 18 hrs by UPLC analysis. The format is physicochemical.
For series [3], the system named is Rattus norvegicus. The experiment in a line: Reduction in food intake in Sprague-Dawley rat at 3 nmol/kg measured 24 to 48 hrs post dose relative to control. The series is classed as functional. Also noted: scale not given: the % may be the effect or the level left.
A short description of series [4]: Solubility in 100 mM bistrispropane buffer at pH 6.5 incubated for 18 hrs by UPLC analysis. The format is physicochemical.
Series [5] has as its target T1, Calcitonin receptor (Homo sapiens, UniProt P30988).
T1 sequence (P30988 whole entry): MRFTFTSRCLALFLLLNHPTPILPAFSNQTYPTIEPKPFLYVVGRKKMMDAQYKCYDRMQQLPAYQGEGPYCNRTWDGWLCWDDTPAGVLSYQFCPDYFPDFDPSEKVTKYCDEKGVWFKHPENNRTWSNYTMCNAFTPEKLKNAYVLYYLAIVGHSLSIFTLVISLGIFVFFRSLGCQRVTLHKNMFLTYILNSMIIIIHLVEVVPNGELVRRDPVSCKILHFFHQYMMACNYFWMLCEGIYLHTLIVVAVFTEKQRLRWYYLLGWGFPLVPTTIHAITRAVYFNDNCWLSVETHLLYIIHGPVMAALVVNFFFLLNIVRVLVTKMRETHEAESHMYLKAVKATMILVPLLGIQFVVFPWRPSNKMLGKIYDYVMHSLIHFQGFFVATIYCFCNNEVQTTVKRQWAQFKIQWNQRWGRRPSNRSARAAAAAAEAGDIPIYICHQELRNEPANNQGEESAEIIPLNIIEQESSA
The experiment in a line: Agonist activity at human calcitonin receptor expressed in BHK570 cells assessed as increase in intracellular cAMP concentration incubated for 3 hrs in presence of 10% FBS by CRE luciferase reporter gene assay. The series is classed as functional, cell-based. (Reporter assays use an easily measured gene product as a stand-in for the process of interest.)

Series [6] in a line: Stability in pH 7.5 buffer assessed as lag time for fibril formation at 1 uM by Thioflavin T based fluorescence assay. The series is classed as physicochemical. The note with it: pH 7.5, 1 µM.
Series [7] concerns the target T2, Amylin receptor AMY3; CALCR/RAMP3 (Homo sapiens, UniProt O60896+P30988).
T2 sequence (P30988 whole entry): T1 sequence (P30988 whole entry)
T2 sequence (O60896 whole entry): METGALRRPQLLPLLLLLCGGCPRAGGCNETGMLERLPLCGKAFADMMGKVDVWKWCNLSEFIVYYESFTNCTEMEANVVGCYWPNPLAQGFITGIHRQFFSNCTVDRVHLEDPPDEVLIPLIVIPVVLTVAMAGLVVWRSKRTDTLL
The experiment in a line: Agonist activity at human amylin receptor expressed in BHK570 cells co-expressing RAMP3 assessed as increase in intracellular cAMP concentration incubated for 3 hrs in presence of 10% FBS by CRE luciferase reporter gene assay. The format is functional, cell-based.

Series [8] can be described thus: Stability in pH 7.5 buffer assessed as compound recovery at 1 uM by Thioflavin T based fluorescence assay. The following applies: read-out: Drug recovery. The format is physicochemical.
A short description of series [9]: Solubility in 100 mM bistrispropane buffer at pH 6.0 incubated for 18 hrs by UPLC analysis. The series is classed as physicochemical.
A short description of series [10]: Solubility in 100 mM glycylglycine buffer at pH 4.0 incubated for 18 hrs by UPLC analysis. The format is physicochemical.
A short description of series [11]: Solubility in 100 mM bistrispropane buffer at pH 7.0 incubated for 18 hrs by UPLC analysis. The series is classed as physicochemical.
Series [12] concerns Rattus norvegicus. The experiment in a line: Reduction in food intake in Sprague-Dawley rat at 3 nmol/kg measured 0 to 24 hrs post dose relative to control. The format is functional. Also noted: scale not given: the % may be the effect or the level left.
Series [13] can be described thus: Solubility in 100 mM glycylglycine buffer at pH 3.0 incubated for 18 hrs by UPLC analysis. The format is physicochemical.
The target of series [14] is T1, Calcitonin receptor. The experiment in a line: Agonist activity at human calcitonin receptor expressed in BHK570 cells assessed as increase in intracellular cAMP concentration incubated for 3 hrs in absence of albumin by CRE luciferase reporter gene assay. The series is classed as functional, cell-based.
Series [15] concerns the target T2, Amylin receptor AMY3; CALCR/RAMP3. The experiment in a line: Agonist activity at human amylin receptor expressed in BHK570 cells co-expressing RAMP3 assessed as increase in intracellular cAMP concentration incubated for 3 hrs in absence of albumin by CRE luciferase reporter gene assay. The series is classed as functional, cell-based.

Numbered stars: 1 amine (or outer) side, 2 acyl side, 3 side chain; on linkers, the order of the positions; unused ones are H or OH. Peptide text beside a SMILES is read from it. * marks the point of attachment. C20 diacid = O=C(O)CCCCCCCCCCCCCCCCCCC(=O)*; γGlu = O=C(O)[C@H](CCC(=O)[*:2])N[*:1]

The term solubility denotes the concentration that dissolves in the medium under given conditions. What is called EC50 is the concentration that produces a half-maximal response.

Regarding `CC(C)C[C@H](NC(=O)CNC(=O)[C@H](CO)NC(=O)[C@H](C)NC(=O)CC[C@H](NC(=O)CCCCCCCCCCCCCCCCCCC(=O)O)C(=O)O)C(=O)N[C@@H](CO)C(=O)N[C@H](C(=O)N[C@@H](C)C(=O)N[C@@H](C)C(=O)N[C@@H](CC(C)C)C(=O)NCC(=O)N[C@@H](CCCNC(=N)N)C(=O)N[C@@H](CC(C)C)C(=O)N[C@@H](CO)C(=O)N[C@@H](CCC(N)=O)C(=O)N[C@@H](CCC(=O)O)C(=O)N[C@@H](CC(C)C)C(=O)N[C@@H](Cc1cnc[nH]1)C(=O)N[C@@H](CCC(=O)O)C(=O)N[C@@H](CC(C)C)C(=O)N[C@@H](CCC(=O)O)C(=O)N[C@H](C(=O)N[C@@H](Cc1ccc(O)cc1)C(=O)N1CCC[C@H]1C(=O)N[C@@H](CCCNC(=N)N)C(=O)N[C@H](C(=O)N[C@@H](CCC(=O)O)C(=O)N[C@H](C(=O)NCC(=O)N[C@@H](CO)C(=O)NCC(=O)N[C@H](C(=O)N[C@@H](Cc1ccc(O)cc1)C(N)=O)[C@@H](C)O)[C@@H](C)O)[C@@H](C)O)[C@@H](C)O)[C@@H](C)O` ({C20 diacid-γGlu}-ASGLSTAALGRLSQELHELETYPRTETGSGTY-NH2), the solubility at 18 h in series [1], in series [2], in [4], in series [9], in series [10] and in [11] was not below 200 µM throughout. Also, the solubility at 18 h in [13] was not below 200 µM. For the same compound, the figures for the Activity in the series with Rattus norvegicus [3] and in the series with Rattus norvegicus [12] were 26% and 27%, respectively. For the same compound, the EC50 at Calcitonin receptor [5] was 0.068 nM; in series [7] it was 0.15 nM. Moreover, the Time in [6] is more than 45 h. Moreover, in series [8], the remaining at 1 µM was 100%.
`CC(C)C[C@H](NC(=O)CNC(=O)[C@H](CO)NC(=O)[C@H](C)NC(=O)CC[C@H](NC(=O)CCCCCCCCCCCCCCCCCCC(=O)O)C(=O)O)C(=O)N[C@@H](CO)C(=O)N[C@H](C(=O)N[C@@H](C)C(=O)N[C@H](C(=O)N[C@@H](CC(C)C)C(=O)NCC(=O)N[C@@H](CCCNC(=N)N)C(=O)N[C@@H](CC(C)C)C(=O)N[C@@H](CO)C(=O)N[C@@H](C)C(=O)N[C@@H](CCC(=O)O)C(=O)N[C@@H](CC(C)C)C(=O)N[C@@H](Cc1cnc[nH]1)C(=O)N[C@@H](CCC(=O)O)C(=O)N[C@@H](CC(C)C)C(=O)N[C@@H](C)C(=O)N[C@H](C(=O)N[C@@H](Cc1ccc(O)cc1)C(=O)N1CCC[C@H]1C(=O)N[C@@H](CCCNC(=N)N)C(=O)N[C@H](C(=O)N[C@@H](CCC(=O)O)C(=O)N[C@H](C(=O)NCC(=O)N[C@@H](CO)C(=O)NCC(=O)N[C@H](C(=O)N[C@@H](Cc1ccc(O)cc1)C(N)=O)[C@@H](C)O)[C@@H](C)O)[C@@H](C)O)[C@@H](C)O)C(C)C)[C@@H](C)O` ({C20 diacid-γGlu}-ASGLSTAVLGRLSAELHELATYPRTETGSGTY-NH2): the solubility at 18 h in [1], in [2], in series [4], in [9], in [10] and in series [11] was not below 200 µM throughout. Also, the solubility at 18 h in series [13] is not below 200 µM. For the same compound, the Activity was found to be 28% in the series with Rattus norvegicus [3] and 26% in the series on Rattus norvegicus [12]. Besides, the 50% effective concentration (EC50) at Calcitonin receptor [5] is 0.053 nM; in series [7] it was 0.122 nM; at Calcitonin receptor [14], 0.07 nM. In [6], the Time was more than 45 h. In series [8], the remaining at 1 µM is 100%.
On to `CC(C)C[C@H](NC(=O)CNC(=O)[C@H](CO)NC(=O)[C@H](C)NC(=O)CC[C@H](NC(=O)CCCCCCCCCCCCCCCCCCC(=O)O)C(=O)O)C(=O)N[C@@H](CO)C(=O)N[C@H](C(=O)N[C@@H](C)C(=O)N[C@H](C(=O)N[C@@H](CC(C)C)C(=O)NCC(=O)N[C@@H](CCCNC(=N)N)C(=O)N[C@@H](CC(C)C)C(=O)N[C@@H](CO)C(=O)N[C@@H](CCC(N)=O)C(=O)N[C@@H](CCC(=O)O)C(=O)N[C@@H](CC(C)C)C(=O)N[C@@H](Cc1cnc[nH]1)C(=O)N[C@@H](CCC(=O)O)C(=O)N[C@@H](CC(C)C)C(=O)N[C@@H](CCC(N)=O)C(=O)N[C@H](C(=O)N[C@@H](CC(C)C)C(=O)N[C@@H](CCC(N)=O)C(=O)N[C@H](C(=O)N[C@@H](Cc1ccc(O)cc1)C(=O)N1CCC[C@H]1C(=O)N[C@@H](CCCNC(=N)N)C(=O)N[C@H](C(=O)N[C@@H](CCC(=O)O)C(=O)N[C@H](C(=O)NCC(=O)N[C@@H](CO)C(=O)N[C@@H](CCC(N)=O)C(=O)N[C@H](C(=O)N[C@@H](Cc1ccc(O)cc1)C(N)=O)[C@@H](C)O)[C@@H](C)O)[C@@H](C)O)[C@@H](C)O)[C@@H](C)O)C(C)C)[C@@H](C)O` ({C20 diacid-γGlu}-ASGLSTAVLGRLSQELHELQTLQTYPRTETGSQTY-NH2), for which the solubility at 18 h in series [1], in series [2], in [4], in [9], in [11] and in series [13] was not below 200 µM in each case. The Activity was determined as 10% in the series with Rattus norvegicus [3] and 25% with Rattus norvegicus [12]. The concentration for a half-maximal effect (EC50) was 0.099 nM on Calcitonin receptor [5], 0.185 nM in [7], 0.045 nM on Calcitonin receptor [14] and 0.054 nM in [15]. Also, the Time in series [6] was determined as 8 h. In addition, the remaining at 1 µM in series [8] came out at 2%.
Consider `CC(C)C[C@H](NC(=O)CC[C@H](NC(=O)CCCCCCCCCCCCCCCCCCC(=O)O)C(=O)O)C(=O)N[C@@H](CO)C(=O)NCC(=O)N[C@@H](CC(C)C)C(=O)N[C@@H](CO)C(=O)N[C@H](C(=O)N[C@@H](C)C(=O)N[C@H](C(=O)N[C@@H](CC(C)C)C(=O)NCC(=O)N[C@@H](CCCNC(=N)N)C(=O)N[C@@H](CC(C)C)C(=O)N[C@@H](CO)C(=O)N[C@@H](CCC(N)=O)C(=O)N[C@@H](CCC(=O)O)C(=O)N[C@@H](CC(C)C)C(=O)N[C@@H](Cc1cnc[nH]1)C(=O)N[C@@H](CCC(=O)O)C(=O)N[C@@H](CC(C)C)C(=O)N[C@@H](CCC(N)=O)C(=O)N[C@H](C(=O)N[C@@H](Cc1ccc(O)cc1)C(=O)N1CCC[C@H]1C(=O)N[C@@H](CCCNC(=N)N)C(=O)N[C@H](C(=O)N[C@@H](CCC(=O)O)C(=O)N[C@H](C(=O)NCC(=O)N[C@@H](CO)C(=O)N[C@@H](CCC(N)=O)C(=O)N[C@H](C(=O)N[C@@H](Cc1ccc(O)cc1)C(N)=O)[C@@H](C)O)[C@@H](C)O)[C@@H](C)O)[C@@H](C)O)C(C)C)[C@@H](C)O` ({C20 diacid-γGlu}-LSGLSTAVLGRLSQELHELQTYPRTETGSQTY-NH2), for which the solubility at 18 h in [1], in series [2], in series [4], in series [9], in series [11] and in [13] was not below 200 µM throughout. Moreover, the Activity is 21% in the series on Rattus norvegicus [3] and 36% with Rattus norvegicus [12]. The concentration giving a half-maximal response (EC50) was 0.073 nM on Calcitonin receptor [5], 0.14 nM in [7] and 0.031 nM in series [15]. Moreover, the Time in series [6] was more than 45 h. Also, the remaining at 1 µM in [8] amounted to 100%.
